Article PMC5218480 (PLoS ONE, 2017)

System: MV-4-11 cells
Assay: Gene expression microarray analysis (Affymetrix PrimeView) and GSEA
Format: cell-based, human
Parameters: RFU PODN (11730768_x_at) / Fold change /veh PODN (11730768_x_at) / RFU LINC00158 (11744669_a_at) / Fold change /veh LINC00158 (11744669_a_at) / RFU DUSP10 (11751237_a_at) / Fold change /veh DUSP10 (11751237_a_at) / RFU ID3 (11757404_x_at) / Fold change /veh ID3 (11757404_x_at) / RFU PLEKHG5 (11737974_s_at) / Fold change /veh PLEKHG5 (11737974_s_at) / RFU LRRC4B (11730491_at) / Fold change /veh LRRC4B (11730491_at) / RFU GIMAP4 (11747438_a_at) / Fold change /veh GIMAP4 (11747438_a_at) / RFU KRT8 (11758183_x_at) / Fold change /veh KRT8 (11758183_x_at) / RFU CNN1 (11734310_a_at) / Fold change /veh CNN1 (11734310_a_at) / RFU VPS37D (11726825_at) / Fold change /veh VPS37D (11726825_at) / RFU C10orf10 (11716522_x_at) / Fold change /veh C10orf10 (11716522_x_at) / RFU KIR2DL2 /// KIR2DL4 /// KIR2DL5A /// KIR2DL5B /// KIR2DS1 /// KIR2DS2 /// KIR2DS3 /// KIR2DS4 /// KIR3DL3 /// KIR3DL3 /// KIR3DS1 (11738374_at) / Fold change /veh KIR2DL2 /// KIR2DL4 /// KIR2DL5A /// KIR2DL5B /// KIR2DS1 /// KIR2DS2 /// KIR2DS3 /// KIR2DS4 /// KIR3DL3 /// KIR3DL3 /// KIR3DS1 (11738374_at) / RFU C1QL1 (11718748_at) / Fold change /veh C1QL1 (11718748_at) / RFU TMPRSS4 (11747572_a_at) / Fold change /veh TMPRSS4 (11747572_a_at) / RFU HAMP (11756126_x_at) / Fold change /veh HAMP (11756126_x_at) / RFU RNFT2 (11725882_a_at) / Fold change /veh RNFT2 (11725882_a_at) / RFU NR4A2 (11747474_a_at) / Fold change /veh NR4A2 (11747474_a_at) / RFU ABCC12 (11746883_a_at) / Fold change /veh ABCC12 (11746883_a_at) / RFU TMEM136 (11760407_x_at) / Fold change /veh TMEM136 (11760407_x_at) / RFU CLDN22 /// WWC2 (11732394_at) / Fold change /veh CLDN22 /// WWC2 (11732394_at) / RFU HLA-DPB1 (11760878_x_at) / Fold change /veh HLA-DPB1 (11760878_x_at) / RFU SPINT1 (11716480_a_at) / Fold change /veh SPINT1 (11716480_a_at) / RFU GAP43 (11754022_s_at) / Fold change /veh GAP43 (11754022_s_at) / RFU A4GNT (11735810_at) / Fold change /veh A4GNT (11735810_at) / RFU PRB3 (11715151_x_at) / Fold change /veh PRB3 (11715151_x_at) / RFU TUBB4B (11761932_at) / Fold change /veh TUBB4B (11761932_at) / RFU CAPN14 (11732068_a_at) / Fold change /veh CAPN14 (11732068_a_at) / RFU TMCC2 (11721928_a_at) / Fold change /veh TMCC2 (11721928_a_at) / RFU IRGQ (11745062_a_at) / Fold change /veh IRGQ (11745062_a_at) / RFU FAM174B (11720279_a_at) / Fold change /veh FAM174B (11720279_a_at) / RFU TMPRSS4 (11748680_a_at) / Fold change /veh TMPRSS4 (11748680_a_at) / RFU FAM212B (11763350_a_at) / Fold change /veh FAM212B (11763350_a_at) / RFU PLEKHG5 (11743358_a_at) / Fold change /veh PLEKHG5 (11743358_a_at) / RFU ZSCAN30 (11745921_a_at) / Fold change /veh ZSCAN30 (11745921_a_at) / RFU CMKLR1 (11741424_a_at) / Fold change /veh CMKLR1 (11741424_a_at) / RFU LOC101060620 /// MAPK8IP1 (11723275_at) / Fold change /veh LOC101060620 /// MAPK8IP1 (11723275_at) / RFU SPTSSB (11747773_x_at) / Fold change /veh SPTSSB (11747773_x_at) / RFU PRSS12 (11739890_at) / Fold change /veh PRSS12 (11739890_at) / RFU BIN1 (11741810_x_at) / Fold change /veh BIN1 (11741810_x_at) / RFU WNT11 (11732464_a_at) / Fold change /veh WNT11 (11732464_a_at) / RFU C10orf10 (11716521_a_at) / Fold change /veh C10orf10 (11716521_a_at) / RFU C5orf56 (11738089_at) / Fold change /veh C5orf56 (11738089_at) / RFU CYB561 (11721691_x_at) / Fold change /veh CYB561 (11721691_x_at) / RFU ANKRD19P (11752326_a_at) / Fold change /veh ANKRD19P (11752326_a_at) / RFU OR2T12 /// OR2T33 /// OR2T8 (11738714_s_at) / Fold change /veh OR2T12 /// OR2T33 /// OR2T8 (11738714_s_at) / RFU VCAN (11748164_a_at) / Fold change /veh VCAN (11748164_a_at) / RFU JSRP1 (11732532_at) / Fold change /veh JSRP1 (11732532_at) / RFU KRTAP10-11 (11738290_x_at) / Fold change /veh KRTAP10-11 (11738290_x_at) / RFU MYO3A (11730013_a_at) / Fold change /veh MYO3A (11730013_a_at) / RFU EBF3 (11725865_a_at) / Fold change /veh EBF3 (11725865_a_at) / RFU CAMK2N1 (11719241_x_at) / Fold change /veh CAMK2N1 (11719241_x_at) / RFU C5orf56 (11738088_a_at) / Fold change /veh C5orf56 (11738088_a_at) / RFU OLFML3 (11715873_a_at) / Fold change /veh OLFML3 (11715873_a_at) / RFU LOC100653217 /// NTM (11731650_a_at) / Fold change /veh LOC100653217 /// NTM (11731650_a_at) / RFU MAPK11 (11762145_a_at) / Fold change /veh MAPK11 (11762145_a_at) / RFU FIZ1 (11724087_x_at) / Fold change /veh FIZ1 (11724087_x_at) / RFU OASL (11726364_x_at) / Fold change /veh OASL (11726364_x_at) / RFU SOX15 (11748057_x_at) / Fold change /veh SOX15 (11748057_x_at) / RFU CD79A (11719716_a_at) / Fold change /veh CD79A (11719716_a_at) / RFU HIST1H1D (11736915_at) / Fold change /veh HIST1H1D (11736915_at) / RFU CASKIN2 (11723855_a_at) / Fold change /veh CASKIN2 (11723855_a_at) / RFU LOC730098 (11760151_x_at) / Fold change /veh LOC730098 (11760151_x_at) / RFU OR4N2 (11742367_at) / Fold change /veh OR4N2 (11742367_at) / RFU PRRT2 (11749266_a_at) / Fold change /veh PRRT2 (11749266_a_at) / RFU SNX32 (11753110_a_at) / Fold change /veh SNX32 (11753110_a_at) / RFU CDHR5 (11726645_a_at) / Fold change /veh CDHR5 (11726645_a_at) / RFU RCAN1 (11760418_a_at) / Fold change /veh RCAN1 (11760418_a_at) / RFU FAM167A (11723789_a_at) / Fold change /veh FAM167A (11723789_a_at) / RFU FAM26E (11764081_at) / Fold change /veh FAM26E (11764081_at) / RFU ISYNA1 (11749810_s_at) / Fold change /veh ISYNA1 (11749810_s_at) / RFU ACY1 (11761880_at) / Fold change /veh ACY1 (11761880_at) / RFU 11764098_at / Fold change /veh 11764098_at / RFU SAMD14 (11745864_x_at) / Fold change /veh SAMD14 (11745864_x_at) / RFU NPB (11741838_a_at) / Fold change /veh NPB (11741838_a_at) / RFU TMPRSS6 (11731388_a_at) / Fold change /veh TMPRSS6 (11731388_a_at) / RFU KRTAP10-2 (11738614_at) / Fold change /veh KRTAP10-2 (11738614_at) / RFU ARHGAP8 /// PRR5-ARHGAP8 (11727945_x_at) / Fold change /veh ARHGAP8 /// PRR5-ARHGAP8 (11727945_x_at) / RFU KRTAP5-7 /// NADSYN1 (11734609_at) / Fold change /veh KRTAP5-7 /// NADSYN1 (11734609_at) / RFU RASL12 (11751679_a_at) / Fold change /veh RASL12 (11751679_a_at) / RFU CDKN2B (11736163_a_at) / Fold change /veh CDKN2B (11736163_a_at) / RFU PRF1 (11729649_at) / Fold change /veh PRF1 (11729649_at) / RFU, ZNF638 /// ZNF638-IT1 / Fold change vs veh, ZNF638 /// ZNF638-IT1 / RFU, PANK3 / Fold change vs veh, PANK3 / RFU, SH3YL1 / Fold change vs veh, SH3YL1 / RFU, ZEB2 / Fold change vs veh, ZEB2 / RFU, NRIP1 / Fold change vs veh, NRIP1 / RFU, PTTG1IP / Fold change vs veh, PTTG1IP / RFU, CAPN2 / Fold change vs veh, CAPN2 / RFU, MED14 / Fold change vs veh, MED14 / RFU, SNORA58 / Fold change vs veh, SNORA58 / RFU, C1orf63 / Fold change vs veh, C1orf63 / RFU, LRRFIP1 / Fold change vs veh, LRRFIP1 / RFU, NDUFAF7 / Fold change vs veh, NDUFAF7 / RFU, SLC12A2 / Fold change vs veh, SLC12A2 / RFU, IBTK / Fold change vs veh, IBTK / RFU, ESF1 / Fold change vs veh, ESF1 / Fold change vs veh, TMEM50B / RFU, TAOK1 / Fold change vs veh, TAOK1 / RFU, ACBD3 / Fold change vs veh, ACBD3 / RFU, TMA16 / Fold change vs veh, TMA16 / RFU, RWDD3 / Fold change vs veh, RWDD3 / RFU, BCAT1 / Fold change vs veh, BCAT1 / RFU, EDEM3 / Fold change vs veh, EDEM3 / RFU, TMEM33 / Fold change vs veh, TMEM33 / RFU, WDR75 / Fold change vs veh, WDR75 / RFU, AHCTF1 / Fold change vs veh, AHCTF1 / RFU, TFRC / Fold change vs veh, TFRC / RFU, ZDHHC17 / Fold change vs veh, ZDHHC17 / RFU, NOM1 / Fold change vs veh, NOM1 / RFU, ARL8B / Fold change vs veh, ARL8B / RFU, ZBTB11 / Fold change vs veh, ZBTB11 / RFU, TAMM41 / Fold change vs veh, TAMM41 / RFU, KIAA1704 /// LOC100996395 / Fold change vs veh, KIAA1704 /// LOC100996395 / RFU, ING1 / Fold change vs veh, ING1 / RFU, TRMT61B / Fold change vs veh, TRMT61B / RFU, FUBP3 / Fold change vs veh, FUBP3 / RFU, TP53 / Fold change vs veh, TP53 / RFU, TNKS2 / Fold change vs veh, TNKS2 / RFU, ZFP14 / Fold change vs veh, ZFP14 / RFU, ACTR2 / Fold change vs veh, ACTR2 / RFU, PPP3R1 / Fold change vs veh, PPP3R1 / RFU, PIK3R1 / Fold change vs veh, PIK3R1 / RFU, HNRNPA1 / Fold change vs veh, HNRNPA1 / RFU, RNF170 / Fold change vs veh, RNF170 / RFU, ZNF28 / Fold change vs veh, ZNF28 / RFU, RNGTT / Fold change vs veh, RNGTT / RFU, OGT / Fold change vs veh, OGT / RFU, BRD1 / Fold change vs veh, BRD1 / RFU, MARS / Fold change vs veh, MARS / RFU, ZNF655 / Fold change vs veh, ZNF655 / RFU, FAHD1 / Fold change vs veh, FAHD1 / RFU, BDP1 / Fold change vs veh, BDP1 / RFU, LRRCC1 / Fold change vs veh, LRRCC1 / RFU, ARID1A / Fold change vs veh, ARID1A / RFU, ZNF146 / Fold change vs veh, ZNF146 / RFU, ZNF330 / Fold change vs veh, ZNF330 / RFU, GPN3 / Fold change vs veh, GPN3 / RFU, C9orf123 / Fold change vs veh, C9orf123 / RFU, N4BP2L2 / Fold change vs veh, N4BP2L2 / RFU, ARFIP1 / Fold change vs veh, ARFIP1 / RFU, FAM179B / Fold change vs veh, FAM179B / RFU, BCL10 / Fold change vs veh, BCL10 / RFU, UHRF1BP1L / Fold change vs veh, UHRF1BP1L / RFU, BET1 / Fold change vs veh, BET1 / RFU, CNOT2 / Fold change vs veh, CNOT2 / RFU, ZNF268 / Fold change vs veh, ZNF268 / Fold change vs veh, ZNF507 / RFU, DGCR2 / Fold change vs veh, DGCR2 / RFU, WDSUB1 / Fold change vs veh, WDSUB1 / Fold change vs veh, HSP90B1 /// MIR3652 / RFU, ADSS / Fold change vs veh, ADSS / RFU, GK / Fold change vs veh, GK / RFU, ZNF148 / Fold change vs veh, ZNF148 / RFU, TAF9 / Fold change vs veh, TAF9 / RFU, SLC1A5 / Fold change vs veh, SLC1A5 / RFU, SLMO2 / Fold change vs veh, SLMO2 / RFU, ABCC4 / Fold change vs veh, ABCC4 / RFU, LOC101060439 /// RAP1B / Fold change vs veh, LOC101060439 /// RAP1B / RFU, RFX7 / Fold change vs veh, RFX7 / RFU, GTPBP10 / Fold change vs veh, GTPBP10 / RFU, CNEP1R1 / Fold change vs veh, CNEP1R1 / RFU, BIVM-ERCC5 /// ERCC5 / Fold change vs veh, BIVM-ERCC5 /// ERCC5 / RFU, ILF3 / Fold change vs veh, ILF3 / RFU 11762660_at / Fold change /veh 11762660_at / RFU VCAN (11757783_s_at) / Fold change /veh VCAN (11757783_s_at) / RFU DDX43 (11728927_at) / Fold change /veh DDX43 (11728927_at) / RFU KRT8 (11758188_x_at) / Fold change /veh KRT8 (11758188_x_at) / RFU NKD1 (11759106_at) / Fold change /veh NKD1 (11759106_at) / RFU SRD5A1 (11742802_a_at) / Fold change /veh SRD5A1 (11742802_a_at) / RFU TPSAB1 /// TPSB2 (11721975_s_at) / Fold change /veh TPSAB1 /// TPSB2 (11721975_s_at) / RFU GSTM3 (11746129_a_at) / Fold change /veh GSTM3 (11746129_a_at) / RFU IL23R (11737362_x_at) / Fold change /veh IL23R (11737362_x_at) / RFU TMEM51 (11727254_a_at) / Fold change /veh TMEM51 (11727254_a_at) / RFU PIWIL2 (11732686_x_at) / Fold change /veh PIWIL2 (11732686_x_at) / RFU ORM1 (11744905_x_at) / Fold change /veh ORM1 (11744905_x_at) / RFU CCDC152 (11743942_at) / Fold change /veh CCDC152 (11743942_at) / RFU ECM1 (11717891_a_at) / Fold change /veh ECM1 (11717891_a_at) / RFU IL23R (11748794_a_at) / Fold change /veh IL23R (11748794_a_at) / RFU TNFAIP8L3 (11732012_x_at) / Fold change /veh TNFAIP8L3 (11732012_x_at) / RFU MBOAT4 (11741988_at) / Fold change /veh MBOAT4 (11741988_at) / RFU 11764193_at / Fold change /veh 11764193_at / RFU TMEM53 (11763286_at) / Fold change /veh TMEM53 (11763286_at) / RFU MAGEB2 (11727129_at) / Fold change /veh MAGEB2 (11727129_at) / RFU TMEM200A (11744735_a_at) / Fold change /veh TMEM200A (11744735_a_at) / RFU CCDC152 (11751479_a_at) / Fold change /veh CCDC152 (11751479_a_at) / RFU FAM211A (11726209_a_at) / Fold change /veh FAM211A (11726209_a_at) / RFU RGS16 (11746705_a_at) / Fold change /veh RGS16 (11746705_a_at) / RFU VCAN (11755009_s_at) / Fold change /veh VCAN (11755009_s_at) / RFU RHOB (11743442_s_at) / Fold change /veh RHOB (11743442_s_at) / RFU RGS16 (11720943_a_at) / Fold change /veh RGS16 (11720943_a_at) / RFU RGS16 (11720944_at) / Fold change /veh RGS16 (11720944_at) / RFU, VPS4B / Fold change vs veh, VPS4B / RFU, CREB1 / Fold change vs veh, CREB1 / RFU, DNAJC13 / Fold change vs veh, DNAJC13 / RFU, GNAQ / Fold change vs veh, GNAQ / RFU, CDK5R1 / Fold change vs veh, CDK5R1 / RFU, ZRANB3 / Fold change vs veh, ZRANB3 / RFU, CUL4A / Fold change vs veh, CUL4A / RFU, CCNY / Fold change vs veh, CCNY / RFU, UFL1 / Fold change vs veh, UFL1 / RFU, COG3 / Fold change vs veh, COG3 / RFU, DIAPH2 / Fold change vs veh, DIAPH2 / RFU, SKA2 / Fold change vs veh, SKA2 / RFU, AFF3 / Fold change vs veh, AFF3 / RFU, LMF1 / Fold change vs veh, LMF1 / RFU, IPO11 / Fold change vs veh, IPO11 / RFU, DFFB / Fold change vs veh, DFFB / RFU, FOXP1 / Fold change vs veh, FOXP1 / RFU, CARD8 / Fold change vs veh, CARD8 / RFU, STRN3 / Fold change vs veh, STRN3 / RFU, ADK / Fold change vs veh, ADK / RFU, RASSF2 / Fold change vs veh, RASSF2 / RFU, WIPF1 / Fold change vs veh, WIPF1 / RFU, LARP1B / Fold change vs veh, LARP1B / RFU, RASA1 / Fold change vs veh, RASA1 / RFU, RB1 / Fold change vs veh, RB1 / RFU, PPFIA1 / Fold change vs veh, PPFIA1 / RFU, MAT2A / Fold change vs veh, MAT2A / RFU, CCT5 / Fold change vs veh, CCT5 / RFU, WDR92 / Fold change vs veh, WDR92 / RFU, CUX1 / Fold change vs veh, CUX1 / RFU, TTC7A / Fold change vs veh, TTC7A / RFU, TMEM135 / Fold change vs veh, TMEM135 / RFU, DEPTOR / Fold change vs veh, DEPTOR / RFU, CPM / Fold change vs veh, CPM / RFU, DNAJB6 / Fold change vs veh, DNAJB6 / RFU, CACNA2D3 / Fold change vs veh, CACNA2D3 / RFU, DTX4 / Fold change vs veh, DTX4 / RFU, TFCP2 / Fold change vs veh, TFCP2 / RFU, GMCL1 /// GMCL1P1 / Fold change vs veh, GMCL1 /// GMCL1P1 / RFU, AEBP2 / Fold change vs veh, AEBP2 / RFU, SNHG1 /// SNORD22 /// SNORD25 /// SNORD26 /// SNORD27 /// SNORD28 /// SNORD29 /// SNORD31 / Fold change vs veh, SNHG1 /// SNORD22 /// SNORD25 /// SNORD26 /// SNORD27 /// SNORD28 /// SNORD29 /// SNORD31 / Fold change (Aza/veh), C12orf56 (ProbeSet 11735607_a_at) / Fold change (ACY-1035/veh), C12orf56 (ProbeSet 11735607_a_at) / Fold change (Aza/veh), FGFR1OP (ProbeSet 11751329_s_at) / Fold change (ACY-1035/veh), FGFR1OP (ProbeSet 11751329_s_at) / Fold change (Aza/veh), VPS36 (ProbeSet 11739960_a_at) / Fold change (ACY-1035/veh), VPS36 (ProbeSet 11739960_a_at) / RFU SYPL1 (11715823_x_at) / Fold change /veh SYPL1 (11715823_x_at) / RFU IGFBP7 (11715501_s_at) / Fold change /veh IGFBP7 (11715501_s_at) / RFU REEP3 (11722064_at) / Fold change /veh REEP3 (11722064_at) / RFU IGLL1 (11728026_x_at) / Fold change /veh IGLL1 (11728026_x_at): dose or concentration left out as unconfirmed
Settings: ProbeSet 11724526_at; LIST B

Nc1ncn([C@@H]2O[C@H](CO)[C@@H](O)[C@H]2O)c(=O)n1 [azacitidine]
Fold change vs veh, FAHD1: 0.84
